Entries after “also recorded” stand apart in the source; their conditions may differ.
How the values were obtained:
[1] = system: RNA3WJ_1.0.0_5IB_3FAM (cis 3WJ with one unpaired nucleotide); experiment: Fluorescence quenching binding assay (FAM / Iowa Black); conditions: two concentration points
Protocol: This assay will be used to test binding of compounds for RNA three way junction (such as a 38 nt construct). This is a fluorescence quenching assay utilizing FAM as fluorescence tag and Iowa Black as quencher. Tags are attached at the 3′ and 5′ end, respectively. Stable formation of MW upon compound binding would lead to quenching of the FAM fluorescence due to close proximity of the Iowa Black tag. Assay readout: FAM (485-520 nm) Fluorescence Intensity.
(§1) Assay sample buffer used: 10 mM CacoK pH 7.2, 30 mM NaCl. Buffer preparation in Dnase/Rnase Free distilled water (Gibco Life Technologies).
(§2) Dilute the RNA 1:10 (final 10 μM) in Assay Buffer.
(§3) Heat up the diluted RNA up to 90° C. for 5 min (sealed Eppendorf Tube).
(§4) Cool down the RNA probe slowly to RT.
(§5) Dilute the compounds to 800 μM in DMSO (Assay: 8 μM).
Final concentrations in the sample: 1-10 μM RNA, 8 μM compound, 1% DMSO
Pipet 25 μL Sample Solution into Greiner cat #784076, black, 384
Measure the 96 plate with the LightCycler480 (Channel: 485/520 nm).
The fluorescence quenching experiment was repeated for compounds Ark0000013 and Ark0000014 to measure binding with:
A) RNA3WJ_1.0.0_5IB_3FAM (cis 3WJ with one unpaired nucleotide)
Both cmpds were tested at two concentration points in the fluorescence quenching assays to assess effect upon RNA constructs utilized in the study. […]

RNA3WJ_3.0.0_5IB_3FAM = experiment: Thermal shift binding assay; conditions: 1 μM RNA, 8 μM compound, 10 mM CacoK pH 7.2, 30 mM NaCl
[2] = system: RNA3WJ_0.0.0_5IB_3FAM (3WJ_0.0.0_5IB_3FAM RNA construct); experiment: Thermal shift binding assay
How it was run: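 A 3WJ RNA construct, 5′-Iowa Black/3′-FAM labelled and annealed (90° C. for 5 min, slow cooling), was tested at 1 μM with 8 μM compound, 1% DMSO, in 10 mM CacoK pH 7.2, 30 mM NaCl. FAM fluorescence (480/510 nm) monitored from 41 to 91° C. at 0.1° C./sec. Compound effect on 3WJ stability taken from Tm shift of melting curves.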

RNA3WJ_2.1.0_5IB_3FAM = experiment: Thermal shift binding assay; conditions: 1 μM RNA, 8 μM compound, 10 mM CacoK pH 7.2, 30 mM NaCl
Text: (§6) Purpose: Test binding of compounds for RNA three way junction (for example, a construct of 38 nt). Thermal shift assay based on established fluorescence quenching assay utilizing FAM as fluorescence tag and Iowa Black as quencher. Tags were attached at the 3′ and 5′ end, respectively. Stable formation of 3WJ upon compound binding would lead to quenching of the FAM fluorescence due to close proximity of the Iowa Black tag. Thermal unfolding leads to increase of fluorescence emission. Assay readout: FAM (465-510 nm) Thermal Shift.
as §1, §2, §3, §4, §5
(§7) Final concentrations in the sample: 1 μM RNA, 8 μM compound, 1% DMSO
(§8) Pipet 20 μL Sample Solution into Roche, Light Cycler480 Multiwell Plate96, white, REF 04729692001.
(§9) Measure the 96 plate with the LightCycler480 (Channel: 480/510 nm; Temperature: 41-91° C.).
(§10) Analyse measurement-data with the MeltingCurveGenotyping Mode.
(§11) Settings: Acquisition mode: continuous; Ramp rate: 0.1° C./sec; Acquisition: 6° C.
(§12) Curves are fitted with raw and normalized data.
(§13) Melting curves analysis show melting temperature (Tm) of ˜51° C. Range of RNA concentrations was tested and assay window was determined (conc. range of 0.5-1 μM yields best results). The choice of buffer also affected the Tm. RNA constructs were tested under different buffer conditions (especially in presence of salt) in the thermal shift assay. […] CacoK with 30 mM salt at 1 μM RNA conc. was used to assess compound effects on 3WJ stability. […] These conditions were used for screening test compounds.

RNA3WJ_1.1.1_5IB_3FAM = experiment: Thermal shift binding assay; conditions: 1 μM RNA, 8 μM compound, 10 mM CacoK pH 7.2, 30 mM NaCl
Text: as §6, §1, §2, §3, §4, §5, §7, §8, §9, §10, §11, §12, §13

RNA3WJ_2.0.0_5IB_3FAM = experiment: Thermal shift binding assay; conditions: 1 μM RNA, 8 μM compound, 10 mM CacoK pH 7.2, 30 mM NaCl
Text: as §6, §1, §2, §3, §4, §5, §7, §8, §9, §10, §11, §12, §13

RNA3WJ_1.1.0_5IB_3FAM = experiment: Thermal shift binding assay; conditions: 1 μM RNA, 8 μM compound, 10 mM CacoK pH 7.2, 30 mM NaCl
Text: as §6, §1, §2, §3, §4, §5, §7, §8, §9, §10, §11, §12, §13

[3] = system: RNA3WJ_1.0.0_5IB_3FAM (cis 3WJ with one unpaired nucleotide); experiment: Thermal shift binding assay; conditions: 1 μM RNA, 8 μM compound
Text: as §6, §1, §2, §3, §4, §5, §7, §8, §9, §10, §11, §12, §13
(§14) Compounds Ark0000013 and Ark0000014 were also tested in the thermal shift assay against three RNA 3WJ constructs, A) RNA3WJ_1.0.0_5IB_3FAM (cis 3WJ with one unpaired nucleotide); B) Split3WJ.1_up_5IB+Split3WJ.1_down_3FAM (trans 3WJ as 1:1 mix); and C) Split3WJ.2_up_5IB+Split3WJ.2_down_3FAM (trans 3WJ as 1:1 mix).

[4] = system: Split3WJ.2_up_5IB+Split3WJ.2_down_3FAM (trans 3WJ as 1:1 mix; Split3WJ_2); experiment: Thermal shift binding assay; conditions: 1 μM RNA, 8 μM compound, 10 mM CacoK pH 7.2, 30 mM NaCl
Text: as §6, §1, §2, §3, §4, §5, §7, §8, §9, §10, §11, §12, §13, §14

[5] = system: Split3WJ.1_up_5IB+Split3WJ.1_down_3FAM (trans 3WJ as 1:1 mix; Split3WJ_1); experiment: Thermal shift binding assay; conditions: 1 μM RNA, 8 μM compound, 10 mM CacoK pH 7.2, 30 mM NaCl
Text: as §6, §1, §2, §3, §4, §5, §7, §8, §9, §10, §11, §12, §13, §14

[6] = 1 μM RNA, 8 μM compound, 10 mM CacoK pH 7.2, 30 mM NaCl

SMILES: CN(CCCN)CCCNC(=O)c1ccc2c(c1)C1c3cc(C(=O)NCCCN(C)CCCN)ccc3C2c2ccc(C(=O)NCCCN(C)CCCN)cc21 [Ark000013, N^2,N^7,N^15-tris(3-((3-aminopropyl)(methyl)amino)propyl)-9,10-dihydro-9,10-[1,2]benzenoanthracene-2,7,15-tricarboxamide]
- fluorescence quenching effect (FAM fluorescence signal) [1]: significant concentration dependent effect
- Melting temp + cmpd (RNA3WJ_3.0.0_5IB_3FAM): 83.7 °C
- Temp. Shift (RNA3WJ_3.0.0_5IB_3FAM): 21.7 °C
- Melting temp + cmpd [2, 6]: 84.1 °C
- Temp. Shift [2, 6]: 24.2 °C
- Melt. Temp. with cmpd ([2]; RNA sequence 3WJ_0.0.0_5IB_FAM, melting temperature in presence of compound): 84.1 °C
- Shift melt. Temp. ([2]; RNA sequence 3WJ_0.0.0_5IB_FAM, with cmpd minus without cmpd): +24.2 °C
- Melting temp + cmpd (RNA3WJ_2.1.0_5IB_3FAM): 45.7 °C
- Temp. Shift (RNA3WJ_2.1.0_5IB_3FAM): 3.8 °C
- Melting temp + cmpd (RNA3WJ_1.1.1_5IB_3FAM): 82.9 °C
- Temp. Shift (RNA3WJ_1.1.1_5IB_3FAM): 20.7 °C
- Melting temp + cmpd (RNA3WJ_2.0.0_5IB_3FAM): 84.3 °C
- Temp. Shift (RNA3WJ_2.0.0_5IB_3FAM): 22.1 °C
- Melting temp + cmpd (RNA3WJ_1.1.0_5IB_3FAM): 85.5 °C
- Temp. Shift (RNA3WJ_1.1.0_5IB_3FAM): 22.2 °C
- effect in the melting curves (in words) [3]: significantly lower fluorescence signal; also recorded: no proper melting curve
- Melting temp + cmpd ([3]; 10 mM CacoK pH 7.2, 30 mM NaCl): 87.0 °C
- Temp. Shift ([3]; 10 mM CacoK pH 7.2, 30 mM NaCl): 21.4 °C
- Melting temp + cmpd [4]: 56.9 °C
- Temp. Shift [4]: ~13 °C
- Temp. Shift ([4]; listed as Ark0000013): 12.2 °C
- Melting temp + cmpd [5]: 58.2 °C
- Temp. Shift [5]: ~21 °C
- Temp. Shift ([5]; listed as Ark0000013): 20.4 °C

From patent US20220402883A1, “COMPOUNDS AND METHODS FOR MODULATING RNA FUNCTION” (Arrakis Therapeutics, Inc., priority 2016, published 2022)
